# Data reported in patent publication US12091405B2, “Substituted pyrazole compounds as indoleamine 2,3-dioxygenase inhibitors” (Merck Sharp & Dohme LLC, priority 2018, dated 2024).
# Target: IDO1 (Homo sapiens, UniProt P14902)
# Assay: IDO1 Cellular Assay in HeLa Cells Stimulated with IFNγ
# Assay type: cell-based
# Conditions: IFNγ 100 ng/mL, 300 uM L-tryptophan, about 48 hours, fluorescence readout, read-out: IDO1 HELA Cell Assay, IC50
# Sequence of IDO1 (P14902 whole entry): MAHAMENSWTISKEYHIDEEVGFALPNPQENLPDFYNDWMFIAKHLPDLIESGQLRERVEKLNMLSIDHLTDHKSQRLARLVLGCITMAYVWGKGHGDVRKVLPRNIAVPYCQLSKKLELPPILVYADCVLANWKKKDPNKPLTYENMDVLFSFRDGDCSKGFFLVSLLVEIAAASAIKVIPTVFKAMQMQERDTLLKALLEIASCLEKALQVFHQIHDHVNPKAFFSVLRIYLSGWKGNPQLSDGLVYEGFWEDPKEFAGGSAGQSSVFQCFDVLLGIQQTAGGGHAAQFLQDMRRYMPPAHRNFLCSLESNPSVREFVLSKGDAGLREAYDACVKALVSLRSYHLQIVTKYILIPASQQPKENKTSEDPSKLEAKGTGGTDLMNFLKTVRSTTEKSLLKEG
row,IC50,SMILES
1,74.2 nM,"Cc1ccnc(C2CCN(C(=O)Cn3nc(C(=O)N4C[C@@H](C)O[C@@H](C)C4)c4c3CCC4)CC2)c1C [Example 80, 2-(3-(cis-2,6-dimethylmorpholine-4-carbonyl)-5,6-dihydrocyclopenta[c]pyrazol-1(4H)-yl)-1-(4-(3,4-dimethylpyridin-2-yl)piperidin-1-yl)ethan-1-one]"
2,142 nM,"C[C@@H]1CN(C(=O)c2nn(CC(=O)N3CCC(c4cc(F)c(F)cc4Cl)CC3)c3c2CCC3)C[C@H](C)O1 [Example 154, 1-[4-(2-chloro-4,5-difluorophenyl)piperidin-1-yl]-2-{3-[(2R,6S)-2,6-dimethylmorpholine-4-carbonyl]-5,6-dihydrocyclopenta[c]pyrazol-1(4H)-yl}ethan-1-one]"
3,16 nM,"Cc1cccc(C2CCN(C(=O)Cn3nc(C(=O)N4CCOCC4)c4c3CCC4)CC2)c1C [Example 46, 1-(4-(2,3-dimethylphenyl)piperidin-1-yl)-2-(3-(morpholine-4-carbonyl)-5,6-dihydrocyclopenta[c]pyrazol-1(4H)-yl)ethan-1-one]"
4,40.3 nM,"Cc1ccc(C2CCN(C(=O)Cn3nc(C(=O)N4C[C@@H](C)O[C@@H](C)C4)c4c3CCC4)CC2)cc1Cl [Example 111, 1-[4-(3-chloro-4-methylphenyl)piperidin-1-yl]-2-{3-[(2R,6S)-2,6-dimethylmorpholine-4-carbonyl]-5,6-dihydrocyclopenta[c]pyrazol-1(4H)-yl}ethan-1-one]"
5,29.6 nM,"C[C@@H]1CN(C(=O)c2nn(CC(=O)N3CCC(c4cccc(C5CC5)c4)CC3)c3c2CCC3)C[C@H](C)O1 [Example 103, 1-[4-(3-cyclopropylphenyl)piperidin-1-yl]-2-{3-[(2R,6S)-2,6-dimethylmorpholine-4-carbonyl]-5,6-dihydrocyclopenta[c]pyrazol-1(4H)-yl}ethan-1-one]"
6,104 nM,"C[C@@H]1CN(C(=O)c2nn(CC(=O)N3CCC(c4ccc(F)c(F)c4)CC3)c3c2CCC3)C[C@H](C)O1 [Example 144, 1-[4-(3,4-difluorophenyl)piperidin-1-yl]-2-{3-[(2R,6S)-2,6-dimethylmorpholine-4-carbonyl]-5,6-dihydrocyclopenta[c]pyrazol-1(4H)-yl}ethan-1-one]"
7,37.9 nM,"COc1cccc(C2CCN(C(=O)Cn3nc(C(=O)N4C[C@@H](C)O[C@@H](C)C4)c4c3CCC4)CC2)c1 [Example 108, 2-{3-[(2R,6S)-2,6-dimethylmorpholine-4-carbonyl]-5,6-dihydrocyclopenta[c]pyrazol-1(4H)-yl}-1-[4-(3-methoxyphenyl)piperidin-1-yl]ethan-1-one]"
8,261 nM,"C[C@@H]1CN(C(=O)c2nn(CC(=O)N3CCC(c4cc(Cl)ccc4F)CC3)c3c2CCC3)C[C@H](C)O1 [Example 166, 1-[4-(5-chloro-2-fluorophenyl)piperidin-1-yl]-2-{3-[(2R,6S)-2,6-dimethylmorpholine-4-carbonyl]-5,6-dihydrocyclopenta[c]pyrazol-1(4H)-yl}ethan-1-one]"
9,234 nM,"C[C@@H]1CN(C(=O)c2nn(CC(=O)N3CCC(c4ccc(F)cc4F)CC3)c3c2CCC3)C[C@H](C)O1 [Example 165, 1-[4-(2,4-difluorophenyl)piperidin-1-yl]-2-{3-[(2R,6S)-2,6-dimethylmorpholine-4-carbonyl]-5,6-dihydrocyclopenta[c]pyrazol-1(4H)-yl}ethan-1-one]"
10,27.7 nM,"C[C@@H]1CN(C(=O)c2nn(CC(=O)N3CCC(c4ccc(F)c(Cl)c4)CC3)c3c2CCC3)C[C@H](C)O1 [Example 100, 1-[4-(3-chloro-4-fluorophenyl)piperidin-1-yl]-2-{3-[(2R,6S)-2,6-dimethylmorpholine-4-carbonyl]-5,6-dihydrocyclopenta[c]pyrazol-1(4H)-yl}ethan-1-one]"
11,11.9 nM,"Cc1ccc(C2CCN(C(=O)Cn3nc(C(=O)N4C[C@@H](C)O[C@@H](C)C4)c4c3CCC4)CC2)cc1F [Example 91, 2-{3-[(2R,6S)-2,6-dimethylmorpholine-4-carbonyl]-5,6-dihydrocyclopenta[c]pyrazol-1(4H)-yl}-1-[4-(3-fluoro-4-methylphenyl)piperidin-1-yl]ethan-1-one]"
12,440 nM,"C[C@@H]1CN(C(=O)c2nn(CC(=O)N3CCC(c4cccc5cnccc45)CC3)c3c2CCC3)C[C@H](C)O1 [Example 171, 2-{3-[(2R,6S)-2,6-dimethylmorpholine-4-carbonyl]-5,6-dihydrocyclopenta[c]pyrazol-1(4H)-yl}-1-[4-(isoquinolin-5-yl)piperidin-1-yl]ethan-1-one]"
13,173 nM,"Cc1cc(C(F)(F)F)ccc1C1CCN(C(=O)Cn2nc(C(=O)N3C[C@@H](C)O[C@@H](C)C3)c3c2CCC3)CC1 [Example 162, 2-{3-[(2R,6S)-2,6-dimethylmorpholine-4-carbonyl]-5,6-dihydrocyclopenta[c]pyrazol-1(4H)-yl}-1-{4-[2-methyl-4-(trifluoromethyl)phenyl]piperidin-1-yl}ethan-1-one]"
14,83.4 nM,"C[C@@H]1CN(C(=O)c2nn(CC(=O)N3CCC(c4ccc(Cl)cc4F)CC3)c3c2CCC3)C[C@H](C)O1 [Example 135, 1-[4-(4-chloro-2-fluorophenyl)piperidin-1-yl]-2-{3-[(2R,6S)-2,6-dimethylmorpholine-4-carbonyl]-5,6-dihydrocyclopenta[c]pyrazol-1(4H)-yl}ethan-1-one]"
15,102 nM,"[2H]c1c([2H])c([2H])c(C2CCN(C(=O)Cn3nc(C(=O)N4C[C@@H](C)O[C@@H](C)C4)c4c3CCC4)CC2)c([2H])c1[2H] [Example 143, 2-{3-[(2R,6S)-2,6-dimethylmorpholine-4-carbonyl]-5,6-dihydrocyclopenta[c]pyrazol-1(4H)-yl}-1-[4-(~2~H_5_)phenylpiperidin-1-yl]ethan-1-one]"
16,4.7 nM,"C[C@@H]1CN(C(=O)c2nn(CC(=O)N3CCC(c4cccc5ccsc45)CC3)c3c2CCC3)C[C@H](C)O1 [Example 84, 1-[4-(benzothiophen-7-yl)-1-piperidyl]-2-[3-[(2S,6R)-2,6-dimethylmorpholine-4-carbonyl]-5,6-dihydro-4H-cyclopenta[c]pyrazol-2-ium-1-yl]ethanone;2,2,2-trifluoroacetate]"
17,296 nM,"CC(C)c1ccc(C2CCN(C(=O)Cn3nc(C(=O)N4C[C@@H](C)O[C@@H](C)C4)c4c3CCC4)CC2)cc1 [Example 168, 2-{3-[(2R,6S)-2,6-dimethylmorpholine-4-carbonyl]-5,6-dihydrocyclopenta[c]pyrazol-1(4H)-yl}-1-{4-[4-(propan-2-yl)phenyl]piperidin-1-yl}ethan-1-one]"
18,52.4 nM,"C[C@@H]1CN(C(=O)c2nn(CC(=O)N3CCC(c4cc(F)cc(F)c4)CC3)c3c2CCC3)C[C@H](C)O1 [Example 67, 1-[4-(3,5-difluorophenyl)piperidin-1-yl]-2-{3-[(2R,6S)-2,6-dimethylmorpholine-4-carbonyl]-5,6-dihydrocyclopenta[c]pyrazol-1(4H)-yl}ethan-1-one]"
19,24.1 nM,"C[C@@H]1CN(C(=O)c2nn(CC(=O)N3CCC(c4cccc(F)c4Cl)CC3)c3c2CCC3)C[C@H](C)O1 [Example 97, 1-[4-(2-chloro-3-fluorophenyl)piperidin-1-yl]-2-{3-[(2R,6S)-2,6-dimethylmorpholine-4-carbonyl]-5,6-dihydrocyclopenta[c]pyrazol-1(4H)-yl}ethan-1-one]"
20,361 nM,"COc1ccc(Cl)cc1C1CCN(C(=O)Cn2nc(C(=O)N3C[C@@H](C)O[C@@H](C)C3)c3c2CCC3)CC1 [Example 170, 1-[4-(5-chloro-2-methoxyphenyl)piperidin-1-yl]-2-{3-[(2R,6S)-2,6-dimethylmorpholine-4-carbonyl]-5,6-dihydrocyclopenta[c]pyrazol-1(4H)-yl}ethan-1-one]"
21,162 nM,"C[C@@H]1CN(C(=O)c2nn(CC(=O)N3CCC(c4cccc(OC(F)(F)F)c4)CC3)c3c2CCC3)C[C@H](C)O1 [Example 160, 2-{3-[(2R,6S)-2,6-dimethylmorpholine-4-carbonyl]-5,6-dihydrocyclopenta[c]pyrazol-1(4H)-yl}-1-{4-[3-(trifluoromethoxy)phenyl]piperidin-1-yl}ethan-1-one]"
22,289 nM,"Cc1cc(F)ccc1C1CCN(C(=O)Cn2nc(C(=O)N3CCN(C(=O)CO)CC3)c3c2CCC3)CC1 [Example 57, 1-(4-(4-fluoro-2-methylphenyl)piperidin-1-yl)-2-(3-(4-(2-hydroxyacetyl)piperazine-1-carbonyl)-5,6-dihydrocyclopenta[c]pyrazol-1(4H)-yl)ethanone]"
23,199 nM,"Cc1cc(F)ccc1C1CCN(C(=O)Cn2nc(C(=O)N3CC[C@H](O)[C@H](F)C3)c3c2CCC3)CC1 [Example 56, 1-(4-(4-fluoro-2-methylphenyl)piperidin-1-yl)-2-(3-((3R,4S)-3-fluoro-4-hydroxypiperidine-1-carbonyl)-5,6-dihydrocyclopenta[c]pyrazol-1(4H)-yl)ethanone]"
24,64.1 nM,"Cc1c(C#N)cccc1C1CCN(C(=O)Cn2nc(C(=O)N3C[C@@H](C)O[C@@H](C)C3)c3c2CCC3)CC1 [Example 129, 3-[1-({3-[(2R,6S)-2,6-dimethylmorpholine-4-carbonyl]-5,6-dihydrocyclopenta[c]pyrazol-1(4H)-yl}acetyl)piperidin-4-yl]-2-methylbenzonitrile]"
25,346 nM,"C[C@@H]1CN(C(=O)c2nn(CC(=O)N3CCC(c4ccccc4Cl)C3)c3c2CCC3)C[C@H](C)O1 (stereo partly drawn) [Example 78, 1-[3-(2-chlorophenyl)pyrrolidin-1-yl]-2-{3-[(2R,6S)-2,6-dimethylmorpholine-4-carbonyl]-5,6-dihydrocyclopenta[c]pyrazol-1(4H)-yl}ethan-1-one]"
26,1.1 nM,"Cc1cccc(C2CCN(C(=O)Cn3nc(C(=O)N4CC[C@H](O)[C@@H](F)C4)c4c3C[C@H]3C[C@@H]43)CC2)c1C [Example 23, 1-[4-(2,3-dimethylphenyl)piperidin-1-yl]-2-{(3bR,4aR)-3-[(3S,4S)-3-fluoro-4-hydroxypiperidine-1-carbonyl]-3b,4,4a,5-tetrahydro-1H-cyclopropa[3,4]cyclopenta[1,2-c]pyrazol-1-yl}ethan-1-one]"
27,14.4 nM,"Cc1cc(F)ccc1C1CCN(C(=O)Cn2nc(C(=O)N3C[C@@H](C)O[C@@H](C)C3)c3c2CCC3)CC1 [Example 92, 2-{3-[(2R,6S)-2,6-dimethylmorpholine-4-carbonyl]-5,6-dihydrocyclopenta[c]pyrazol-1(4H)-yl}-1-[4-(4-fluoro-2-methylphenyl)piperidin-1-yl]ethan-1-one]"
